Laboratory results: patent publication US20250074891A1 (Anaxis Pharma Pty Ltd., priority 2021, published 2025)
pKd: −log10 of the molar value.

Tests used:
Conditions in all cases: Table 35
MLKL (full length) = MLKL (full length) (Homo sapiens (Human), UniProt Q8NB16); experiment: KINOMEscan binding assay, MLKL (full length)
Procedure: (§1) Kinase assays. For most assays, kinase-tagged T7 phage strains were grown in parallel in 24-well blocks in an E. coli host derived from the BL21 strain. E. coli were grown to log-phase and infected with T7 phage from a frozen stock (multiplicity of infection=0.4) and incubated with shaking at 32° C. until lysis (90-150 minutes).
(§2) The Hill Slope was set to −1.

RIP1 = RIP1 (Homo sapiens (Human), UniProt Q13546); experiment: KINOMEscan binding assay, RIP1
Chain of RIP1 (Q13546 whole entry): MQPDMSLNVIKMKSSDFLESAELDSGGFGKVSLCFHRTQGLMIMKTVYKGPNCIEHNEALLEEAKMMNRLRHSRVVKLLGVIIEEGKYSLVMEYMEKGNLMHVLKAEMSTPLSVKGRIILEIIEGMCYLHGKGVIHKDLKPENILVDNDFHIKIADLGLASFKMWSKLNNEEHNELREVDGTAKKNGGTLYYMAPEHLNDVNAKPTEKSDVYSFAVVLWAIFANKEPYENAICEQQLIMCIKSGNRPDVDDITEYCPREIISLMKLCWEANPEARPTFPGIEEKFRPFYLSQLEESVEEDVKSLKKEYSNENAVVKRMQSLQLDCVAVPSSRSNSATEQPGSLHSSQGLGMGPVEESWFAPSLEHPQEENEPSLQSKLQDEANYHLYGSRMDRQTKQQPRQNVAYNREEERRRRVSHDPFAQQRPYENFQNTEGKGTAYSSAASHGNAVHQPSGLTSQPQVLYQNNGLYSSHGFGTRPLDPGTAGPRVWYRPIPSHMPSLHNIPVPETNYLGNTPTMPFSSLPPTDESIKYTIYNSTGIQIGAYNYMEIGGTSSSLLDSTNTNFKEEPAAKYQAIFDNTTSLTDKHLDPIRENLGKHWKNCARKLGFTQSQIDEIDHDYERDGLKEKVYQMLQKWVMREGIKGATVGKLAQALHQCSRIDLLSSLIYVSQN

RIP3 = RIP3 (Homo sapiens (Human), UniProt Q9Y572); experiment: KINOMEscan binding assay, RIP3
Chain of RIP3 (Q9Y572 whole entry): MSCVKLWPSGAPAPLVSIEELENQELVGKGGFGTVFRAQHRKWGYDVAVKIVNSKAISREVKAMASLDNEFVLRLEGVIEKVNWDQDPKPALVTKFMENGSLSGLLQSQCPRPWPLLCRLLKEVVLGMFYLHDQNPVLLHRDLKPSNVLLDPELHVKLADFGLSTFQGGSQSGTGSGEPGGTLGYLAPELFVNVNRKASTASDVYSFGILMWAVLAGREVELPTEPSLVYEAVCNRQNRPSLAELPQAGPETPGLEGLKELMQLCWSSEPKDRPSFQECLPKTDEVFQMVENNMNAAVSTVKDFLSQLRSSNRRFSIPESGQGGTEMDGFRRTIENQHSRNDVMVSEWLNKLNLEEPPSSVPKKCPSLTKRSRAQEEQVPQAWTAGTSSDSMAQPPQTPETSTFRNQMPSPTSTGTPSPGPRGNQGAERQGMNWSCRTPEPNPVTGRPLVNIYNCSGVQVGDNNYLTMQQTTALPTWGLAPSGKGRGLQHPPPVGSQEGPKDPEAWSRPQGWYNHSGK
Procedure: as §1, §2

Chain of MLKL (full length) (Q8NB16 whole entry): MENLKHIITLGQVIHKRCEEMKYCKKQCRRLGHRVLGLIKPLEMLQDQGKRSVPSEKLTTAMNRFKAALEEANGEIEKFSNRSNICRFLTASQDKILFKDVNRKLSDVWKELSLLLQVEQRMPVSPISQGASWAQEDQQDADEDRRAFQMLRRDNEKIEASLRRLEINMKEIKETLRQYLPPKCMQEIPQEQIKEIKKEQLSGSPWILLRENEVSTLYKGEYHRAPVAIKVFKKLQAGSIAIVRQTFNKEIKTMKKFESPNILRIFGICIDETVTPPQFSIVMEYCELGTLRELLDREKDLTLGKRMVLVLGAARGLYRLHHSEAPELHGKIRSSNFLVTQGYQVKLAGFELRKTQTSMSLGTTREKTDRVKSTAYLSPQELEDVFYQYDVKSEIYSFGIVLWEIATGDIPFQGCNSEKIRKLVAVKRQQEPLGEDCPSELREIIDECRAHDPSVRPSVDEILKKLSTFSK

SMILES | pKd (MLKL (full length)) | pKd (RIP1) | pKd (RIP3)
C[C@H](Oc1cc(-c2n[nH]c(Nc3cccc(C(F)(F)F)n3)c2C(N)=O)ccc1NS(=O)(=O)C(F)F)c1ccc(F)cc1 [Compound 229, 3-[4-(difluoromethanesulfonamido)-3-[(1S)-1-(4-fluorophenyl)ethoxy]phenyl]-5-{[6-(trifluoromethyl)pyridin-2-yl]amino}-1H-pyrazole-4-carboxamide] | > 8.00 | < 4.52 | < 4.52
CCS(=O)(=O)Nc1ccc(-c2n[nH]c(Nc3cnccn3)c2C(N)=O)cc1O[C@@H](C)c1ccccn1 [Compound 230, 3-{4-ethanesulfonamido-3-[(1S)-1-(pyridin-2-yl)ethoxy]phenyl}-5-[(pyrazin-2-yl)amino]-1H-pyrazole-4-carboxamide] | > 8.00 | < 4.52 | < 4.52
NC(=O)c1c(-c2ccc(NS(=O)(=O)CC(F)(F)F)c(OCc3ccc(F)cn3)c2)n[nH]c1Nc1cnccn1 [Compound 231, 3-(3-((5-fluoropyridin-2-yl)methoxy)-4-((2,2,2-trifluoroethyl)sulfonamido)phenyl)-5-(pyrazin-2-ylamino)-1H-pyrazole-4-carboxamide] | > 8.00 | < 4.52 | < 4.52
CCS(=O)(=O)Nc1ccc(-c2n[nH]c(Nc3cnccn3)c2C(N)=O)cc1OC1CCCc2ccccc21 (stereo not drawn) [Compound 232, 3-[4-ethanesulfonamido-3-(1,2,3,4-tetrahydronaphthalen-1-yloxy)phenyl]-5-[(pyrazin-2-yl)amino]-1H-pyrazole-4-carboxamide] | > 8.00 | < 4.52 | < 4.52
NC(=O)c1c(-c2ccc(NS(=O)(=O)CC(F)(F)F)c(OCc3ccc(Cl)cc3)c2)n[nH]c1Nc1cnc(C(F)(F)F)cn1 [Compound 234, 3-{3-[(4-chlorophenyl)methoxy]-4-(2,2,2-trifluoroethanesulfonamido)phenyl}-5-{[5-(trifluoromethyl)pyrazin-2-yl]amino}-1H-pyrazole-4-carboxamide] | > 8.00 | < 4.52 | < 4.52
NC(=O)c1c(-c2ccc(NS(=O)(=O)C(F)F)c(OCc3ccc(Cl)cc3)c2)n[nH]c1Nc1cnc(C(F)(F)F)cn1 [Compound 235, 3-(3-((4-chlorobenzyl)oxy)-4-((difluoromethyl)sulfonamido)phenyl)-5-((5-(trifluoromethyl)pyrazin-2-yl)amino)-1H-pyrazole-4-carboxamide] | > 8.00 | < 4.52 | < 4.52
NC(=O)c1c(-c2ccc(NS(=O)(=O)C(F)F)c(OC(c3ccc(F)cc3)C3CCC3)c2)n[nH]c1Nc1cnccn1 (stereo not drawn) [Compound 236, 3-{3-[cyclobutyl(4-fluorophenyl)methoxy]-4-(difluoromethanesulfonamido)phenyl}-5-[(pyrazin-2-yl)amino]-1H-pyrazole-4-carboxamide] | > 8.00 | < 4.52 | < 4.52
N#Cc1cccc(Nc2[nH]nc(-c3ccc(NS(=O)(=O)CC(F)(F)F)cc3)c2C(N)=O)n1 [Compound 237, 5-[(6-cyanopyridin-2-yl)amino]-3-[4-(2,2,2-trifluoroethanesulfonamido)phenyl]-1H-pyrazole-4-carboxamide] | > 8.00 | < 4.52 | < 4.52
NC(=O)c1c(-c2ccc(NS(=O)(=O)CC(F)(F)F)c(OCc3ccc(F)cc3)c2)n[nH]c1Nc1ccccn1 [Compound 239, 3-{3-[(4-fluorophenyl)methoxy]-4-(2,2,2-trifluoroethanesulfonamido)phenyl}-5-[(pyridin-2-yl)amino]-1H-pyrazole-4-carboxamide] | > 8.00 | < 4.52 | < 4.52
NC(=O)c1c(-c2ccc(NS(=O)(=O)CC(F)(F)F)c(OCc3ccc(F)cn3)c2)n[nH]c1Nc1ccccn1 [Compound 240, 3-{3-[(5-fluoropyridin-2-yl)methoxy]-4-(2,2,2-trifluoroethanesulfonamido)phenyl}-5-[(pyridin-2-yl)amino]-1H-pyrazole-4-carboxamide] | > 8.00 | < 4.52 | < 4.52
CCS(=O)(=O)Nc1ccc(-c2n[nH]c(Nc3ccccn3)c2C(N)=O)cc1OCc1ccc(F)cn1 [Compound 241, 3-{4-ethanesulfonamido-3-[(5-fluoropyridin-2-yl)methoxy]phenyl}-5-[(pyridin-2-yl)amino]-1H-pyrazole-4-carboxamide] | > 8.00 | < 4.52 | < 4.52
CCS(=O)(=O)Nc1ccc(-c2n[nH]c(Nc3cnccn3)c2C(N)=O)cc1OCc1ccc(Cl)cn1 [Compound 242, 3-{3-[(5-chloropyridin-2-yl)methoxy]-4-ethanesulfonamidophenyl}-5-[(pyrazin-2-yl)amino]-1H-pyrazole-4-carboxamide] | > 8.00 | < 4.52 | < 4.52
Cc1cnc(Nc2[nH]nc(-c3ccc(NS(=O)(=O)C(F)F)c(O[C@@H](C)c4ccc(F)cc4)c3)c2C(N)=O)cn1 [Compound 245, 3-[4-(difluoro-methanesulfon-amido)-3-[(1S)-1-(4-fluorophenyl)ethoxy]phenyl]-5-[(5-methylpyrazin-2-yl)amino]-1H-pyrazole-4-carboxamide] | > 8.00 | < 4.52 | < 4.52
NC(=O)c1c(-c2ccc(NS(=O)(=O)C(F)F)c(OCc3ccc(F)cc3)c2)n[nH]c1Nc1cnc(C(F)(F)F)cn1 [Compound 246, 3-[4-(difluoromethanesulfonamido)-3-[(4-fluorophenyl)methoxy]phenyl]-5-{[5-(trifluoromethyl)pyrazin-2-yl]amino}-1H-pyrazole-4-carboxamide] | > 8.00 | < 4.52 | < 4.52
C[C@H](Oc1cc(-c2n[nH]c(Nc3cccc(C(F)(F)F)n3)c2C(N)=O)ccc1NS(=O)(=O)CC(F)(F)F)c1ccc(F)cc1 [Compound 249, 3-{3-[(1S)-1-(4-fluorophenyl)ethoxy]-4-(2,2,2-trifluoroethane-sulfonamido)phenyl}-5-{[6-(trifluoromethyl)pyridin-2-yl]amino}-1H-pyrazole-4-carboxamide] | > 8.00 | < 4.52 | < 4.52
C[C@H](Oc1cc(-c2n[nH]c(Nc3cnccn3)c2C(N)=O)ccc1NS(=O)(=O)C(F)F)c1ccc(Cl)cc1 [Compound 252, 3-{3-[(1S)-1-(4-chlorophenyl)ethoxy]-4-(difluoromethanesulfonamido)phenyl}-5-[(pyrazin-2-yl)amino]-1H-pyrazole-4-carboxamide] | > 8.00 | < 4.52 | < 4.52
C[C@H](Oc1cc(-c2c(C(N)=O)c(Nc3cnccn3)nn2C)ccc1NS(=O)(=O)C(F)F)c1ccc(F)cc1 [Compound 253, 5-[4-(difluoromethanesulfonamido)-3-[(1S)-1-(4-fluorophenyl)ethoxy]phenyl]-1-methyl-3-[(pyrazin-2-yl)amino]-1H-pyrazole-4-carboxamide] | > 8.00 | < 4.52 | < 4.52
C[C@H](Oc1cc(-c2n[nH]c(Nc3cnccn3)c2C(N)=O)ccc1NS(=O)(=O)CC(F)(F)F)c1cccc(Cl)c1 [Compound 256, 3-{3-[(1S)-1-(3-chlorophenyl)ethoxy]-4-(2,2,2-trifluoroethane-sulfonamido)phenyl}-5-[(pyrazin-2-yl)amino]-1H-pyrazole-4-carboxamide] | > 8.00 | < 4.52 | < 4.52
